Data: patent US10039753B2, “Imidazo[4,5-c]quinoline and imidazo[4,5-c][1,5]naphthyridine derivatives as LRRK2 inhibitors” (Pfizer Inc., priority 2015, dated 2018)

Legend:
[1] = target: T1, GST-tagged truncated LRRK2 (Homo sapiens, UniProt Q5S007); assay: LRRK2 Assay, Format 1 (Lantha Screen), WT; format: biochemical; settings: Format 1, wild-type LRRK2; geometric mean of 2-4 determinations unless footnoted (a: ≥5 determinations; b: single determination; c: determined on trifluoroacetate salt)
T1 construct: GST-tagged truncated LRRK2 from Invitrogen (Cat # PV4874); GST; purchased Invitrogen PV4874
Outline: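 Kinase activity measured by TR-FRET: GST-tagged truncated LRRK2 (4 μg/mL working solution) reacted with fluorescein-labeled LRRKtide (ERM-based peptide) across a compound dose response for 2 h at room temperature. Reaction stopped with EDTA-containing detection buffer (20 mM Tris pH 7.6) holding 2 nM terbium anti-phospho-ERM antibody.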

[2] = tested on: kinase selectivity mini-panel; assay: Kinase selectivity (mini-panel), further assay run, Table 5A; format: biochemical; settings: 1 mM ATP, 1 μM drug concentration; for percent inhibition of ABL: kinase ABL; for percent inhibition of AKT: kinase AKT; for percent inhibition of AURA: kinase AURA; for percent inhibition of BTK: kinase BTK; for percent inhibition of CDK2_CyclinA: kinase CDK2_CyclinA; for percent inhibition of CHK1: kinase CHK1; for percent inhibition of CHK2: kinase CHK2; for percent inhibition of CKIIa′: kinase CKIIa′; for percent inhibition of CKIa: kinase CKIa; for percent inhibition of CaMKIIa: kinase CaMKIIa; for percent inhibition of EGFR: kinase EGFR; for percent inhibition of ERK2: kinase ERK2; for percent inhibition of EphA2: kinase EphA2; for percent inhibition of FGFR1: kinase FGFR1; for percent inhibition of GSK3b: kinase GSK3b; for percent inhibition of HGFR: kinase HGFR; for percent inhibition of IRAK4: kinase IRAK4; for percent inhibition of IRK: kinase IRK; for percent inhibition of JAK3: kinase JAK3; for percent inhibition of KDR (VEGF): kinase KDR (VEGF); for percent inhibition of LCK: kinase LCK; for percent inhibition of MARK1: kinase MARK1; for percent inhibition of MK2: kinase MK2; for percent inhibition of MLCK_sk: kinase MLCK_sk; for percent inhibition of MST2: kinase MST2; for percent inhibition of MST4: kinase MST4; for percent inhibition of PAK4: kinase PAK4; for percent inhibition of PDK1: kinase PDK1; for percent inhibition of PIM2: kinase PIM2; for percent inhibition of PKACa: kinase PKACa; for percent inhibition of PRKCB2: kinase PRKCB2; for percent inhibition of ROCKI: kinase ROCKI; for percent inhibition of SGK: kinase SGK; for percent inhibition of SRC: kinase SRC; for percent inhibition of TAO2: kinase TAO2; for percent inhibition of TIE2: kinase TIE2; for percent inhibition of TRKA: kinase TRKA; for percent inhibition of ZC1 (HGK): kinase ZC1 (HGK); for percent inhibition of p38: kinase p38
Method: The compounds were run using a commercially available kinase selectivity assay which is available from CarnaBio USA, Inc. 209 West Central St., Suite 307, Natick, Mass. 01760 USA. The compounds of Examples 3, 4, 5 and 22 were run in the assay at a concentration of 1 μM using an ATP concentration of 1 mM.

[3] = target: mutant G2019S LRRK2 (Homo sapiens, UniProt Q5S007, G2019S); assay: LRRK2 Assay, Format 1 (Lantha Screen), G2019S mutant
Chain of mutant G2019S LRRK2 (Q5S007 970-2527 G2019S limits assumed): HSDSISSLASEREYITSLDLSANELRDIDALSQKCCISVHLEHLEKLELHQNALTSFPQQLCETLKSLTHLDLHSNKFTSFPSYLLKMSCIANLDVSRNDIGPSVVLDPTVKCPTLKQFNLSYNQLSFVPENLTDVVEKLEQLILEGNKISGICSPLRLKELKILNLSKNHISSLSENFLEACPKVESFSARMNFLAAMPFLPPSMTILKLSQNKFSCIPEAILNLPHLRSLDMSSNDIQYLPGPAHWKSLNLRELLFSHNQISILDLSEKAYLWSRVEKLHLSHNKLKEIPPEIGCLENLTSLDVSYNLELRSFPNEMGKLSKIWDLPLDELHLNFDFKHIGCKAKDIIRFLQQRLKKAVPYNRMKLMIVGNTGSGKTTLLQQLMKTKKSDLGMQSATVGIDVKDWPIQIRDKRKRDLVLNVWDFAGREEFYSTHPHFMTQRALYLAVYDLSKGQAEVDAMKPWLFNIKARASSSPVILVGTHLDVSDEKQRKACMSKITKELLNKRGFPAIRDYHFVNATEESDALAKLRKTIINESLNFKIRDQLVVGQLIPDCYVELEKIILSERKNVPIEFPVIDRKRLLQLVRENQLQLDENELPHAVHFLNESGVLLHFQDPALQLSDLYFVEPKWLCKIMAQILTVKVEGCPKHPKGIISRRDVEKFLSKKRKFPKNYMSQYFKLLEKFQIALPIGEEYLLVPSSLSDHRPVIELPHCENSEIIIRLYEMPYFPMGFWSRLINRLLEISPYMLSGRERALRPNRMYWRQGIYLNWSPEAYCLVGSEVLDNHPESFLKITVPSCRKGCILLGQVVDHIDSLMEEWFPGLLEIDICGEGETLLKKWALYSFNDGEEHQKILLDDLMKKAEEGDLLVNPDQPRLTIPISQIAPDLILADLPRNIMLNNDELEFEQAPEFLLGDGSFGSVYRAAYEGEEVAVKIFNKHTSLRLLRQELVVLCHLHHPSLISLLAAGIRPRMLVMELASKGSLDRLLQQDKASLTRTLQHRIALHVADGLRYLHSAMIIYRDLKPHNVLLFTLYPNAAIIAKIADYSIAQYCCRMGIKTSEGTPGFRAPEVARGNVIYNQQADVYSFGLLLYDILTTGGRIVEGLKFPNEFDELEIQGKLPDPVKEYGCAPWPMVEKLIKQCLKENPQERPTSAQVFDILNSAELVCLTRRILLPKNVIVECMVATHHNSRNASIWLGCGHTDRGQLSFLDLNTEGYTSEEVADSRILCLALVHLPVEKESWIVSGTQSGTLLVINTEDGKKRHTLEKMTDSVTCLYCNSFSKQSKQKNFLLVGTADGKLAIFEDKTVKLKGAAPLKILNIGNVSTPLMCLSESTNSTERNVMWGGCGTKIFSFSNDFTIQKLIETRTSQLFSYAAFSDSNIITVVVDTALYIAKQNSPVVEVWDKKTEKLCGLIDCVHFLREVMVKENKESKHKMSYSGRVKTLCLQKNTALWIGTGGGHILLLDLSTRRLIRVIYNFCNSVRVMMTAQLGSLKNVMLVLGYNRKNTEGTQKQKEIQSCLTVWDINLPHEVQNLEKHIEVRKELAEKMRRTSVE

T1 sequence (Q5S007 970-2527 limits assumed): as the sequence (Q5S007 970-2527 G2019S limits assumed) above, with S1050G counted along it

**Q.** `Cc1cc(Cc2nc3cnc4ccc(Cl)cc4c3n2[C@@H]2CCO[C@H](C)C2)no1` [Example 4, 8-Chloro-2-[(5-methyl-1,2-oxazol-3-yl)methyl]-1-[(2R,4R)-2-methyltetrahydro-2H-pyran-4-yl]-1H-imidazo[4,5-c]quinoline] was tested. Which IC50 [1] did it give?
**A.** 8.3 nM

**Q.** What about the “percent inhibition of ABL” value [2] of the same compound?
**A.** −2.51%

**Q.** And the “percent inhibition of AKT” value [2]?
**A.** 1.03%

**Q.** And the “percent inhibition of AURA” value [2]?
**A.** 7.17%

**Q.** And the “percent inhibition of BTK” value [2]?
**A.** 0.22%

**Q.** And the “percent inhibition of CDK2_CyclinA” value [2]?
**A.** 8.08%

**Q.** And the “percent inhibition of CHK1” value [2]?
**A.** 8.15%

**Q.** And the “percent inhibition of CHK2” value [2]?
**A.** 2.72%

**Q.** What about the “percent inhibition of CKIIa′” value [2] of the same compound?
**A.** 4.36%

**Q.** What about the “percent inhibition of CKIa” value [2] of the same compound?
**A.** 18.22%

**Q.** What about the “percent inhibition of CaMKIIa” value [2] of the same compound?
**A.** 7.62%

**Q.** What about the “percent inhibition of EGFR” value [2] of the same compound?
**A.** 3.07%

**Q.** What about the “percent inhibition of ERK2” value [2] of the same compound?
**A.** 4.54%

**Q.** And the “percent inhibition of EphA2” value [2]?
**A.** 0.85%

**Q.** And the “percent inhibition of FGFR1” value [2]?
**A.** 20.35%

**Q.** And the “percent inhibition of GSK3b” value [2]?
**A.** 4.45%

**Q.** What about the “percent inhibition of HGFR” value [2] of the same compound?
**A.** −5.99%

**Q.** And the “percent inhibition of IRAK4” value [2]?
**A.** 3.88%

**Q.** What about the “percent inhibition of IRK” value [2] of the same compound?
**A.** 2.83%

**Q.** And the “percent inhibition of JAK3” value [2]?
**A.** −1.51%

**Q.** What about the “percent inhibition of KDR (VEGF)” value [2] of the same compound?
**A.** 14.24%

**Q.** And the “percent inhibition of LCK” value [2]?
**A.** 15.63%

**Q.** What about the “percent inhibition of MARK1” value [2] of the same compound?
**A.** 1.48%

**Q.** And the “percent inhibition of MK2” value [2]?
**A.** 3.04%

**Q.** And the “percent inhibition of MLCK_sk” value [2]?
**A.** 3.07%

**Q.** What about the “percent inhibition of MST2” value [2] of the same compound?
**A.** 16.25%

**Q.** And the “percent inhibition of MST4” value [2]?
**A.** 1.29%

**Q.** And the “percent inhibition of PAK4” value [2]?
**A.** 3.85%

**Q.** What about the “percent inhibition of PDK1” value [2] of the same compound?
**A.** 4.87%

**Q.** What about the “percent inhibition of PIM2” value [2] of the same compound?
**A.** −0.54%

**Q.** What about the “percent inhibition of PKACa” value [2] of the same compound?
**A.** −0.89%

**Q.** And the “percent inhibition of PRKCB2” value [2]?
**A.** 4.71%

**Q.** And the “percent inhibition of ROCKI” value [2]?
**A.** 1.89%

**Q.** And the “percent inhibition of SGK” value [2]?
**A.** 1.58%

**Q.** What about the “percent inhibition of SRC” value [2] of the same compound?
**A.** 4.66%

**Q.** What about the “percent inhibition of TAO2” value [2] of the same compound?
**A.** 0.82%

**Q.** What about the “percent inhibition of TIE2” value [2] of the same compound?
**A.** 4.72%

**Q.** And the “percent inhibition of TRKA” value [2]?
**A.** 11.84%

**Q.** What about the “percent inhibition of ZC1 (HGK)” value [2] of the same compound?
**A.** −3.58%

**Q.** What about the “percent inhibition of p38” value [2] of the same compound?
**A.** 9.62%

**Q.** What about the IC50 [3] of the same compound?
**A.** 4.9 nM

**Q.** Which results are given for `Cc1nc(Cc2nc3cnc4ccc(Cl)cc4c3n2[C@@H]2CCO[C@H](C)C2)no1` [Example 5, 8-Chloro-2-[(5-methyl-1,2,4-oxadiazol-3-yl)methyl]-1-[(2R,4R)-2-methyltetrahydro-2H-pyran-4-yl]-1H-imidazo[4,5-c]quinoline]?
**A.** IC50 [1]: 4.6 nM; percent inhibition of ABL [2]: 1.3%; percent inhibition of AKT [2]: −3.11%; percent inhibition of AURA [2]: −0.59%; percent inhibition of BTK [2]: −1.9%; percent inhibition of CDK2_CyclinA [2]: 3.76%; percent inhibition of CHK1 [2]: 4.68%; percent inhibition of CHK2 [2]: 2.05%; percent inhibition of CKIIa′ [2]: 5.19%; percent inhibition of CKIa [2]: 8.85%; percent inhibition of CaMKIIa [2]: 1.1%; percent inhibition of EGFR [2]: −0.51%; percent inhibition of ERK2 [2]: 2.62%; percent inhibition of EphA2 [2]: 0.13%; percent inhibition of FGFR1 [2]: 12.6%; percent inhibition of GSK3b [2]: 3.4%; percent inhibition of HGFR [2]: −7.71%; percent inhibition of IRAK4 [2]: 1.85%; percent inhibition of IRK [2]: 1.53%; percent inhibition of JAK3 [2]: −0.03%; percent inhibition of KDR (VEGF) [2]: 15.08%; percent inhibition of LCK [2]: 17.19%; percent inhibition of MARK1 [2]: 3.46%; percent inhibition of MK2 [2]: −3.62%; percent inhibition of MLCK_sk [2]: 3.8%; percent inhibition of MST2 [2]: 14.89%; percent inhibition of MST4 [2]: 8.04%; percent inhibition of PAK4 [2]: −0.05%; percent inhibition of PDK1 [2]: 0.39%; percent inhibition of PIM2 [2]: −3.78%; percent inhibition of PKACa [2]: −8.79%; percent inhibition of PRKCB2 [2]: 9.78%; percent inhibition of ROCKI [2]: 0.07%; percent inhibition of SGK [2]: −0.06%; percent inhibition of SRC [2]: 2.47%; percent inhibition of TAO2 [2]: 0.55%; percent inhibition of TIE2 [2]: 2.53%; percent inhibition of TRKA [2]: 12.31%; percent inhibition of ZC1 (HGK) [2]: −0.79%; percent inhibition of p38 [2]: 5.64%; IC50 [3]: 2.7 nM

**Q.** Which results are given for `Cc1cn(Cc2nc3cnc4ccc(Cl)cc4c3n2[C@@H]2CCO[C@H](C)C2)nn1` [Example 11, 8-Chloro-1-[(2R,4R)-2-methyltetrahydro-2H-pyran-4-yl]-2-[(4-methyl-1H-1,2,3-triazol-1-yl)methyl]-1H-imidazo[4,5-c]quinoline]?
**A.** IC50 [1]: 3.4 nM; percent inhibition of ABL [2]: 5.06%; percent inhibition of AKT [2]: 2.25%; percent inhibition of AURA [2]: 9.46%; percent inhibition of BTK [2]: 1.63%; percent inhibition of CDK2_CyclinA [2]: 10.91%; percent inhibition of CHK1 [2]: 9.08%; percent inhibition of CHK2 [2]: 4.45%; percent inhibition of CKIIa′ [2]: 3.12%; percent inhibition of CKIa [2]: 10.68%; percent inhibition of CaMKIIa [2]: 3.76%; percent inhibition of EGFR [2]: 2.76%; percent inhibition of ERK2 [2]: 4.69%; percent inhibition of EphA2 [2]: 0.7%; percent inhibition of FGFR1 [2]: 21.95%; percent inhibition of GSK3b [2]: 3.91%; percent inhibition of HGFR [2]: −3.76%; percent inhibition of IRAK4 [2]: 4.95%; percent inhibition of IRK [2]: 0.67%; percent inhibition of JAK3 [2]: −0.46%; percent inhibition of KDR (VEGF) [2]: 29%; percent inhibition of LCK [2]: 9.31%; percent inhibition of MARK1 [2]: 1.52%; percent inhibition of MK2 [2]: −1.14%; percent inhibition of MLCK_sk [2]: 4.74%; percent inhibition of MST2 [2]: 23.23%; percent inhibition of MST4 [2]: 10.29%; percent inhibition of PAK4 [2]: 4.23%; percent inhibition of PDK1 [2]: 8.16%; percent inhibition of PIM2 [2]: 4.47%; percent inhibition of PKACa [2]: 5.23%; percent inhibition of PRKCB2 [2]: −0.76%; percent inhibition of ROCKI [2]: 6.94%; percent inhibition of SGK [2]: 4.89%; percent inhibition of SRC [2]: 1.86%; percent inhibition of TAO2 [2]: 5.98%; percent inhibition of TIE2 [2]: 5.85%; percent inhibition of TRKA [2]: 13.01%; percent inhibition of ZC1 (HGK) [2]: 2.87%; percent inhibition of p38 [2]: 7.19%; IC50 [3]: 2.6 nM
